Test results taken from patent US20020091082A1, “Methods of modulating symptoms of hypertension” (priority 2000, published 2002).
“Also recorded” adds a separate entry of the source. Read-outs that look alike come from different tables or passages of the source.

What was measured:
ERK1/2 = assay: Stretch-induced ERK1/2 phosphorylation in retinal pericytes; type: cell-based, bovine
Method: To determine what pathways were activated in retinal pericytes exposed to cardiac profile cyclic stretch, ERK phosphorylation, PI3 kinase activity and Akt phosphorylation were evaluated. Stretch induced a rapid increase in ERK 1/ 2 phosphorylation which was initially evident after 2 minutes, maximal at 5 min (ERK1=20-fold; ERK2=8.9-fold increase) and still maintained above baseline even after 60 min (ERK1=6.3-fold; ERK2=4.5-fold).
Further confirmation that stretch-induced ERK1/2 activation was not involved in mediating stretch-induced VEGF expression was obtained by assaying ERK1/2 phosphorylation after exposure to the inhibitors described herein. The inhibitor response for stretch-induced ERK1/2 phosphorylation was opposite that observed for stretch-induced VEGF expression. Stretch-induced ERK1/2 phosphorylation was reduced by inhibition of MEK1 (85+10.8%, 88+7.1%, p<0.05) or classical/novel PKC (83+23%, 84+7.1% p<0.05) but relatively unaffected by inhibition of PI3 kinase or tyrosine phosphorylation. Adenovirus infection with dominant negative ERK, wild type active ERK63 or b-galactosidase control had no effect on stretch-induced VEGF expression.
Mechanical Stretch: For pericyte experiments, cells were plated on 6-well flexiblebottom culture plates coated with collagen (Flexcell Corp.,Mckeepsport, Pa.). […]

VEGF mRNA = assay: Stretch-induced VEGF mRNA expression in bovine retinal pericytes (Northern blot); type: cell-based; conditions: BRPC; for effect on stretch-induced VEGF mRNA expression: 9%/60 cpm cyclic stretch, PD98059 20 uM, GF109203X 5 uM; for effect on stretch-induced VEGF mRNA expression / inhibition of stretch-induced VEGF mRNA expression: wortmannin 100 nM, LY294002 50 uM; for inhibition of stretch-induced VEGF mRNA expression: 9%/60 cpm cyclic stretch 3 hours, genistein 20 uM, adenovirus 1×10^8 pfu/ml; for effect on basal VEGF mRNA expression: unstretched
Method: To determine the mechanism by which stretch increased VEGF mRNA expression, inhibitors of MEK1 (PD98059, 20 uM), classical/novel PKC isoforms (GF109203X, 5 uM), tyrosine phosphorylation (genistein, 20 uM) and PI3 kinase (wortmannin, 100 nM and LY294002, 50 uM) were evaluated. In all experiments 9%/60 cpm cyclic stretch for 3 hours induced VEGF mRNA expression. Inhibition of ERK1/2 utilizing PD98059 had little effect on either basal or stretch-induce expression of VEGF. […] LY294002 and wortmannin inhibited stretched induced VEGF mRNA expression by 85±20% (p=0.039) and 96±25% (p=0.035), respectively.
Cell culture: Primary cultures of bovine retinal pericytes (BRPC) were isolated by homogenization and a series of filtration steps. BRPC were cultured in DMEM containing 5.5 mM glucose and 20% FBS. The cells were maintained in 5% CO2 at 37 °C and media were changed every three days. Cells were characterized for their homogeneity by immunoreactivity with monoclonal antibody 3G5. Cells were plated at a density of 2×10^4 cells/cm2 and passaged when confluent. The media were changed every three days and only cells from passages 2-5 were used for experiments.
(§1) Mechanical Stretch: For pericyte experiments, cells were plated on 6-well flexiblebottom culture plates coated with collagen (Flexcell Corp.,Mckeepsport, Pa.). After 2 days, media were changed to DMEM containing 1% calf serum and the cells incubated overnight. Cells were then subjected to uniform radial and circumferential strain in 5% CO2 at 37° C. using a computer-controlled, vacuum stretch apparatus (Flexcer Cell Strain Unit; Flexcel Corp.). A physiologic stretch frequency of 60 cpm and 3-20% prolongation of elastomer bottomed plates were used as previously described.
RNA Extraction: RNA was extracted using the guanidinium thiocynate method. RNA purity was determined by the ratio of optical density (OD) measured at 260 & 280 nm and RNA quantity was estimated using OD measured at 260 nm.
Northern Blot Analysis: Northern blot analysis was performed on 15 μg total RNA per lane after 1% agarose-2M formaldehyde gel electrophoresis and subsequent capillary transfer to Biodyne nylon membranes (Pall BioSupport, East Hills, N.Y.). Membranes underwent ultraviolet crosslinking using a UV Stratalinker 2400 (STRATAGENE, La Jolla, Calif.). Radioactive probes were generated using Amersham Megaprime labeling kits (Buckinghamshire, England) and 32PdCTP (NEN Life Science Products Inc., Boston, Mass.). Blots were pre-hybridized, hybridized and washed 4 times in 0.5×SSC, 5% SDS at 65 °C for 1 hour in a rotating hybridization oven (Robbins Scientific Corporation, Sunnyvale, Calif.). All signals were analyzed using a computing PhosphorImager with ImageQuant software analysis (Molecular Dynamics, Sunnyvale, Calif.). The signal for each sample was normalized by re-probing the same blot using 36B4 cDNA control probe.

Akt = assay: Stretch-induced Akt phosphorylation in retinal pericytes; type: cell-based, bovine; conditions: cyclic stretch
Method: The mechanism of stretch-induced Akt phosphorylation was evaluated using two PI3 kinase inhibitors (LY294002 and wortmannin), the MEK1 inhibitor PD98059 and the tyrosine kinase inhibitor genistein.
as §1
ERK1/2 and Akt phosphorylation: Cells were washed with cold PBS and lysed in 1X Laemmli buffer containing protease inhibitors as described above. Cell lysates were heated to 95 °C for 2 min and equal volume of lysates were subjected to SDS-PAGE under reducing conditions. The blots were incubated with anti-phosphospecific ERK1(p44)/ERK2(p42) or anti-phosphospecific Akt antibody (New England Biolabs, Beverly, Ma.). Lane loading differences were normalized by reblotting with non-phosphorylation-specific (total) anti ERK1 antibody (Santa Cruz Biological) or anti-total Akt antibody(New England Biolabs).

retinal VEGF mRNA = assay: Retinal VEGF mRNA in spontaneously hypertensive rats (multiplex RT-PCR); type: in vivo, rat; conditions: SHR rats; captopril 100 mg/kg/day or candesartan cilexetil 10 mg/kg/day in drinking water for one week
Method: (§2) 12 week-old male spontaneously hypertensive rats (SHR) and weight-matched Wistar-Kyoto (WKY) control animals were used. Systolic and diastolic blood pressures were measured from each animal by tail cuff. Animals were treated with or without 100 mg/kg/day captopril or 10 mg/kg/day candesartan cilexetil for one week. Drugs were administered in drinking water. Blood measurements were repeated after therapy and the retinas individually isolated.
(§3) RNA was isolated from individual retinas and RNA reverse transcribed at 42° C. using random hexamer primers. PCR amplification was carried out using a 55° C. annealing temperature. The samples were separated on a 6% nondenaturing polyacrylamide gel. The gel was dried and analyzed by PhosphorImager. Signal intensity was normalized using rat ribosomal phosphoprotein P0 (RRRPP0) as an internal standard.

[1] = Blood pressure in spontaneously hypertensive rats (tail cuff); type: in vivo, rat; conditions: SHR rats, treatment for one week in drinking water
Method: as §2

retinal KDR mRNA = assay: Retinal KDR mRNA in spontaneously hypertensive rats (multiplex RT-PCR); type: in vivo, rat; conditions: SHR rats, captopril 100 mg/kg/day or candesartan cilexetil 10 mg/kg/day in drinking water for one week
Method: To determine the effect of hypertension on KDR levels in vivo, KDR mRNA was quantified in hypertensive rats (SHR) as well as weight-matched controls (WKY). […] Captopril is an angiotensin converting enzyme (ACE) inhibitor. Candesartan Cilexetil is an angiotensin II antagonist.
as §2, §3

KDR mRNA [2] = assay: Angiotensin II-induced KDR mRNA expression; type: cell-based
From the text: (§4) Cyclic stretch induces KDR mRNA at least 2.2 fold. […] In contrast, angiotensin II which also induces KDR mRNA is blocked from doing so by candesartan cilexetil, an AT1 receptor antagonist. Thus, unlike Angiotensin II induced KDR expression, stretch induced KDR expression is not mediated through the AT1 receptor pathway.

KDR mRNA [3] = assay: Cyclic stretch-induced KDR mRNA expression; type: cell-based, bovine
Method: as §4
(§5) Cells were seeded on 6-well flexible-bottom plates coated with bovine fibronectin and subjected to uniform radial and circumferential strain using a computercontrolled, vacuum stretch apparatus (Flexcer Cell Strain Unit; Flexcel Corp.) with cardiac profile at a frequency of 60 cpm.

[4] = system: bovine retinal endothelial cells (BRECs); assay: 3H-thymidine incorporation (mitogenesis) under cyclic stretch; type: cell-based
Method: Cells can respond to VEGF by proliferation. A measure of proliferation is the rate of cell progression through mitosis. Cells transiting S phase will incorporate ^3H-thymidine.
To determine if the effects of cyclic stretching on mitogenesis are mediated by VEGF signaling, cells were stretched while treated with a VEGF neutralizing antibody.
as §5
Confluent cells were placed in 1% calf serum for 24 hours and then subjected to 9%/60 cpm cyclic stretch for 24 hrs. During the last 12 hrs, VEGF (25 ng/ml final). VEGF neutralizing antibody (10 μg/ml was added 30 minutes prior to stretch onset. ^3H-thymidine (0.5 μCi/ml)was added during the last 6 hours.

## CN(C)CCCn1cc(C2=C(c3c[nH]c4ccccc34)C(=O)NC2=O)c2ccccc21 [GF109203X]
ERK1/2
  effect on stretch-induced ERK1/2 phosphorylation: inhibition
VEGF mRNA
  effect on stretch-induced VEGF mRNA expression: did not alter

## O=c1cc(N2CCOCC2)oc2c(-c3ccccc3)cccc12 [LY294002]
VEGF mRNA
  inhibition of stretch-induced VEGF mRNA expression: 85±20%
Akt
  inhibition of stretch-induced Akt phosphorylation: 119+14%

## COc1cccc(-c2cc(=O)c3ccccc3o2)c1N [PD98059]
VEGF mRNA
  effect on stretch-induced VEGF mRNA expression: little effect; also recorded: not suppressed
  effect on basal VEGF mRNA expression: little effect
Akt
  effect on stretch-induced Akt phosphorylation: little effect

## CCOc1nc2cccc(C(=O)OC(C)OC(=O)OC3CCCCC3)c2n1Cc1ccc(-c2ccccc2-c2nn[nH]n2)cc1 (stereo not drawn) [candesartan cilexetil]
Retinal VEGF mRNA
  effect on hypertension-induced elevation of retinal VEGF mRNA: blocked
[1]
  effect on blood pressure: normalization
Retinal KDR mRNA
  effect on hypertension-induced elevation of retinal KDR mRNA: blocked
Retinal KDR mRNA; listed as candesartan
  effect on hypertension-induced elevation of retinal KDR mRNA: returned to baseline levels
KDR mRNA [2]; angiotensin II stimulation
  effect on angiotensin II-induced KDR mRNA: blocked
KDR mRNA [3]
  effect on cyclic stretch-induced KDR mRNA expression: not significantly affected
KDR mRNA [3]; listed as candesartan
  effect on cyclic stretch-induced KDR mRNA expression: not inhibited

## C[C@H](CS)C(=O)N1CCC[C@H]1C(=O)O [captopril]
Retinal VEGF mRNA
  effect on hypertension-induced elevation of retinal VEGF mRNA: blocked
[1]
  effect on blood pressure: normalization
Retinal KDR mRNA
  effect on hypertension-induced elevation of retinal KDR mRNA: blocked; also recorded: returned to baseline levels

## O=c1c(-c2ccc(O)cc2)coc2cc(O)cc(O)c12 [genistein]
ERK1/2
  effect on stretch-induced ERK1/2 phosphorylation: lack of response
VEGF mRNA
  inhibition of stretch-induced VEGF mRNA expression: 87±12%
  effect on basal VEGF mRNA expression: without altering
Akt
  inhibition of stretch-induced Akt phosphorylation: 84+14%

## COC[C@H]1OC(=O)c2coc3c2[C@@]1(C)C1=C(C3=O)[C@@H]2CCC(=O)[C@@]2(C)C[C@H]1OC(C)=O [wortmannin]
VEGF mRNA
  inhibition of stretch-induced VEGF mRNA expression: 96±25%
Akt
  inhibition of stretch-induced Akt phosphorylation: 119+18%

## VEGF
[4]; BREC, cyclic stretch plus VEGF
  increase of VEGF-stimulated thymidine uptake by cyclic stretch: 2.6+/−0.2 fold
[4]; cyclic stretching in combination with exogenous VEGF (25 ng/ml)
  increase in 3H-thymidine uptake: 257±21%
[4]; exogenous VEGF alone, no stretch
  effect on 3H-thymidine uptake: no significant effect

## angiotensin II (DRVYIHPF; Angiotensin-2; UniProt P01019 25-32, looked up) [peptide that induces KDR mRNA through the AT1 receptor]
KDR mRNA [2]
  KDR mRNA induction: induces
